Positions count from the first letter of the chain named.

The values that follow come from patent US11866720B2, “Transgenic or non-transgenic plants with mutated protoporphyrinogen oxidase having increased tolerance to herbicides” (priority 2013, dated 2024).

Holding throughout (assay): biochemical
Common to all, as to conditions: IC50 (M)

Assay [1] has as its target T1, recombinant wildtype and mutated PPO (Amaranthus PPO2: PPX2L_WC SEQ ID NO 2, PPX2L_AC SEQ ID NO 4, dG210 SEQ ID NO 6 & 8) (Amaranthus tuberculatus, UniProt Q0NZW9, D133A/F420M/R128Q).
T1 sequence (Q0NZW9 1-534 R128Q/D133A/F420M): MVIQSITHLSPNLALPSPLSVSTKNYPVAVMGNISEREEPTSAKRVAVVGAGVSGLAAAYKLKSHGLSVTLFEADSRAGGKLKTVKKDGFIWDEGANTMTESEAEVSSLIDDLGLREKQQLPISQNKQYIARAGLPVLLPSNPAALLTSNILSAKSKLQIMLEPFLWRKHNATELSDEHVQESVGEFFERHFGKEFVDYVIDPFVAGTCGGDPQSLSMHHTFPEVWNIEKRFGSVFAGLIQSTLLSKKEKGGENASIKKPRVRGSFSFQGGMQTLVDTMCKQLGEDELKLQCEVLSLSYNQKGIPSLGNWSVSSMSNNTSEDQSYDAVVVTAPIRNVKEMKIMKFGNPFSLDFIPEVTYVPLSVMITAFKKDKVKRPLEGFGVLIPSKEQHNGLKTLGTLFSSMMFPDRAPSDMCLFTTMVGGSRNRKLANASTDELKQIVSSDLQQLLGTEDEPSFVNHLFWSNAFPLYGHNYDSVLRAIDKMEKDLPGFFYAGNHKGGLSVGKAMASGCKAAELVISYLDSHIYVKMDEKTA

In assay [2] the target is T2, recombinant wildtype and mutated PPO (Amaranthus PPO2: PPX2L_WC SEQ ID NO 2, PPX2L_AC SEQ ID NO 4, dG210 SEQ ID NO 6 & 8) (Amaranthus tuberculatus, UniProt Q0NZW9, D133A/F420M/R128T).
T2 sequence (Q0NZW9 1-534 R128T/D133A/F420M): T1 sequence (Q0NZW9 1-534 R128Q/D133A/F420M) with Q128T

Assay [3] has as its target T3, recombinant wildtype and mutated PPO (Amaranthus PPO2: PPX2L_WC SEQ ID NO 2, PPX2L_AC SEQ ID NO 4, dG210 SEQ ID NO 6 & 8) (Amaranthus tuberculatus, UniProt Q0NZW9, D133A/F420M/R128I).
T3 sequence (Q0NZW9 1-534 R128I/D133A/F420M): T1 sequence (Q0NZW9 1-534 R128Q/D133A/F420M) with Q128I

Assay [4] deals with recombinant wildtype and mutated PPO (Amaranthus PPO2: PPX2L_WC SEQ ID NO 2, PPX2L_AC SEQ ID NO 4, dG210 SEQ ID NO 6 & 8) (Amaranthus tuberculatus, UniProt Q0NZW9, D133A/F420M/R128G).
Assay [5] has as its target recombinant wildtype and mutated PPO (Amaranthus PPO2: PPX2L_WC SEQ ID NO 2, PPX2L_AC SEQ ID NO 4, dG210 SEQ ID NO 6 & 8) (Amaranthus tuberculatus, UniProt Q0NZW9, D133A/F420I/R128H).
Assay [6] addresses T4, recombinant wildtype and mutated PPO (Amaranthus PPO2: PPX2L_WC SEQ ID NO 2, PPX2L_AC SEQ ID NO 4, dG210 SEQ ID NO 6 & 8) (Amaranthus tuberculatus, UniProt Q0NZW9, D133A/F420M/R128F).
T4 sequence (Q0NZW9 1-534 R128F/D133A/F420M): T1 sequence (Q0NZW9 1-534 R128Q/D133A/F420M) with Q128F

Chain of recombinant wildtype and mutated PPO (Amaranthus PPO2: PPX2L_WC SEQ ID NO 2, PPX2L_AC SEQ ID NO 4, dG210 SEQ ID NO 6 & 8) (Amaranthus tuberculatus, UniProt Q0NZW9, D133A/F420I/R128H) (Q0NZW9 1-534 R128H/D133A/F420I): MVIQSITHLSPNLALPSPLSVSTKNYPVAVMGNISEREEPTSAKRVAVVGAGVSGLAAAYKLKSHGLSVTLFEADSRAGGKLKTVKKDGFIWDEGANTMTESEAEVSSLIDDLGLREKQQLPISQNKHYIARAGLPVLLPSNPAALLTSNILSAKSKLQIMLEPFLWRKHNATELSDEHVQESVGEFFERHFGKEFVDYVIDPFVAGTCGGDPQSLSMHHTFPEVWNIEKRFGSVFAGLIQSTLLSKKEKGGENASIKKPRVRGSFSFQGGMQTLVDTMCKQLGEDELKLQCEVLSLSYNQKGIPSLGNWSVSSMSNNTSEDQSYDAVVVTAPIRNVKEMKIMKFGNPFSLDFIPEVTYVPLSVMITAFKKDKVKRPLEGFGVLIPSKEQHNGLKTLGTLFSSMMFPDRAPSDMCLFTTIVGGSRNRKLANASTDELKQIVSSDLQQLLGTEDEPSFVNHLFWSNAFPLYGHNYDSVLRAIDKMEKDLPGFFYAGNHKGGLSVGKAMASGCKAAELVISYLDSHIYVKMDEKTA
Chain of recombinant wildtype and mutated PPO (Amaranthus PPO2: PPX2L_WC SEQ ID NO 2, PPX2L_AC SEQ ID NO 4, dG210 SEQ ID NO 6 & 8) (Amaranthus tuberculatus, UniProt Q0NZW9, D133A/F420M/R128G) (Q0NZW9 1-534 R128G/D133A/F420M): as the sequence (Q0NZW9 1-534 R128H/D133A/F420I) above, with H128G, I420M counted along it

Take `C#CCN1C(=O)C(F)(F)Oc2cc(F)c(-n3c(=O)n(C)c(=S)n(C)c3=O)cc21`: the IC50 – broadly, the concentration that inhibits the measured activity by half – in assay [1] amounted to 1.07e-08 M; in assay [2] it was 4.33e-08 M; in assay [3], 6.1e-08 M; in assay [4], 1.26e-08 M; in assay [5] it was 8.22e-08 M; in assay [6], 1.21e-07 M.
Regarding `COC(Oc1ccccc1Oc1cc(-n2c(=O)cc(C(F)(F)F)n(C)c2=O)c(F)cc1Cl)C(=O)OC1CCCCC1` (stereo not drawn), the IC50 came out at 1.72e-07 M in assay [1]; 1.17e-07 M in assay [2]; 1.06e-08 M in assay [3]; 5.14e-08 M in assay [4]; 1.31e-06 M in assay [5]; 6.26e-08 M in assay [6].
Regarding `COC(=O)C(OC)Oc1ccccc1Oc1cc(-n2c(=O)cc(C(F)(F)F)n(C)c2=O)c(F)cc1Cl` (stereo not drawn), the IC50 in assay [1] turned out to be 7.14e-08 M; in assay [2], 2.79e-08 M; in assay [3], 1.15e-08 M; in assay [4], 4.76e-08 M; in assay [5] it was 7.54e-08 M; in assay [6], 2.81e-09 M.
